Laboratory results reported in patent publication US10894817B2, “Fatty acid modified urocortin-2 analogs for the treatment of diabetes and chronic kidney disease” (priority 2016, dated 2021).
Starred links: 1 amine or outer side, 2 acyl side, 3 side chain; linkers in the order of their positions; H or OH if unused. Residues, ends and D or L forms follow the SMILES beside them. Groups on a side chain read outwards from the residue. *: point of attachment. γGlu = O=C(O)[C@H](CCC(=O)[*:2])N[*:1]; Palmitoyl = CCCCCCCCCCCCCCCC(=O)*; AEEA = NCCOCCOCC(=O)O

Target: T1, human CRHR2b (Homo sapiens, UniProt Q13324)
T1 construct: expressed in transfected cells; host or cells: Chinese Hamster Ovary (CHO) cells, transient transfection
T1 sequence (Q13324 1-438 isoform Q13324-2): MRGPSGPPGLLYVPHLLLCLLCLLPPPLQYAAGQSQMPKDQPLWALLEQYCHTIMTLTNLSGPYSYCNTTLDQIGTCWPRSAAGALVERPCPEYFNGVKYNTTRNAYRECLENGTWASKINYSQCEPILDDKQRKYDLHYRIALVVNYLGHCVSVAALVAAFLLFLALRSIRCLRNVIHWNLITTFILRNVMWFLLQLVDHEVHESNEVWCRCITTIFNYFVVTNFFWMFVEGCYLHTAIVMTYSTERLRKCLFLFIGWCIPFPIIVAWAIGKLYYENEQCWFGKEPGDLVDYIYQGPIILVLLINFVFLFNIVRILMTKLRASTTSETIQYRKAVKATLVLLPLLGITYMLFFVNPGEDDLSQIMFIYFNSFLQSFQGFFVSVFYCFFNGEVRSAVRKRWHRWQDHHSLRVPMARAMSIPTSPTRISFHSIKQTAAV
Test: human CRHR2b cell-based cAMP assay
Conditions: cAMP assay; Table 26, compounds of Example 9; read-out: hCRHR2b Average EC50
Experimental: CRHR agonistic activity is measured in a cell-based cAMP assay. Serial dilutions of the test peptides are made in assay buffer containing Hank's Balanced Salt Solution (HBSS, without phenol red) supplemented with 20 mM HEPES and 0.05% lactalbumin enzymatic hydrolysate (LAH) (“assay buffer”). […] A one to three dilution of the test peptides is used in both assays. Receptor over-expressing Chinese Hamster Ovary (CHO) cell line is used for the human CRHR2b assay. […] AF011406.1). Forty-eight hours after the transfection, the cells are centrifuged to remove the culture media and resuspended in fetal bovine serum containing 5% DMSO. They are cryofrozen and stored in vials in liquid nitrogen (20×10^6 cells/ml/vial). On the day of the assay, cells are thawed and resuspended in cold 30 ml culture media supplemented with 20 mM HEPES. The cells are then centrifuged to remove the media and washed once with HBSS supplemented with 20 mM HEPES. Finally, following the last centrifugation, the cells are resuspended in assay buffer. Thirty-thousand cells are used in the human CRHR2b assay for each treatment. The cells are dispensed into Costar 96-well black polystyrene half area EIA/RIA plates (Corning Incorporated, Corning, N.Y.) followed by the addition of the diluted peptides, each at a volume of 20 μL. The agonist induced cAMP levels are detected using a HTRF cAMP Dynamic 2 kit (CisBio, Bedford, Mass.). After incubation at 37° C. for 30 min, the assay is stopped by cell lysis via the addition of 20 μL of d2-labeled cAMP and followed by 20 μL of cryptate-labeled anti-cAMP antibody, as described by the manufacturer. Cellular cAMP (as a result of agonist stimulation) competes with the d2-labeled cAMP for binding to the antibody. HTRF detection is performed on an Envision plate reader (Perkin Elmer Life and Analytical Sciences, Waltham, Mass.) by measuring ratiometric emission at 620 and 665 nm after excitation at 320 nm. The data are converted to picomoles of cAMP using a standard curve obtained from the same assay performed with varying concentrations of unlabeled cAMP. […] The data are analyzed using a Curve Fitting Tool to calculate ED50. Numeric values shown below in Table 1 represent the mean of multiple runs (number of runs shown in parentheses) following the mean value±SEM.

Row | Structure (SMILES) | EC50 [nM]
1 | CCCCCCCCCCCCCCCC(=O)N[C@@H](CCC(=O)N[C@@H](CCC(=O)NCCCC[C@H](NC(=O)[C@H](CCC(=O)O)NC(=O)[C@H](CCCCN)NC(=O)[C@H](CCC(=O)O)NC(=O)[C@H](CCC(N)=O)NC(=O)[C@H](CCCCN)NC(=O)[C@H](CCC(=O)O)NC(=O)[C@H](CCC(N)=O)NC(=O)[C@H](CCC(=O)O)NC(=O)[C@H](CC(C)C)NC(=O)[C@H](CC(C)C)NC(=O)[C@@H](NC(=O)[C@H](CCC(N)=O)NC(=O)[C@H](CC(C)C)NC(=O)[C@H](CC(C)C)NC(=O)CNC(=O)[C@@H](NC(=O)[C@@H]1CCCN1C(=O)[C@@H](NC(=O)[C@H](CC(=O)O)NC(=O)[C@H](CC(C)C)NC(=O)[C@H](CO)NC(=O)[C@H](CC(C)C)NC(=O)[C@@H](NC(=O)[C@@H](N)[C@@H](C)CC)C(C)C)C(C)C)[C@@H](C)CC)[C@@H](C)CC)C(=O)N[C@@H](CCC(N)=O)C(=O)N[C@@H](CCC(N)=O)C(=O)N[C@@H](C)C(=O)N[C@H](C(=O)N[C@H](C(=O)N[C@@H](CC(N)=O)C(=O)N[C@@H](C)C(=O)N[C@@H](CCCNC(=N)N)C(=O)N[C@H](C(=O)N[C@@H](CC(C)C)C(=O)N[C@@H](C)C(=O)N[C@@H](CCCNC(=N)N)C(=O)N[C@H](C(N)=O)C(C)C)[C@@H](C)CC)[C@@H](C)O)[C@@H](C)O)C(=O)O)C(=O)O [Compound 31] (H-IVLSLDVPIGLLQILLEQEKQEKEK([γGlu-γGlu-Palmitoyl])QQATTNARILARV-NH2) | 3.2
2 | CCCCCCCCCCCCCCCC(=O)N[C@@H](CCC(=O)NCCOCCOCC(=O)NCCCC[C@H](NC(=O)[C@H](CCC(=O)O)NC(=O)[C@H](CCCCN)NC(=O)[C@H](CCC(=O)O)NC(=O)[C@H](CCC(N)=O)NC(=O)[C@H](CCCCN)NC(=O)[C@H](CCC(=O)O)NC(=O)[C@H](CCC(N)=O)NC(=O)[C@H](CCC(=O)O)NC(=O)[C@H](CC(C)C)NC(=O)[C@H](CC(C)C)NC(=O)[C@@H](NC(=O)[C@H](CCC(N)=O)NC(=O)[C@H](CC(C)C)NC(=O)[C@H](CC(C)C)NC(=O)CNC(=O)[C@@H](NC(=O)[C@@H]1CCCN1C(=O)[C@@H](NC(=O)[C@H](CC(=O)O)NC(=O)[C@H](CC(C)C)NC(=O)[C@H](CO)NC(=O)[C@H](CC(C)C)NC(=O)[C@@H](NC(=O)[C@@H](N)[C@@H](C)CC)C(C)C)C(C)C)[C@@H](C)CC)[C@@H](C)CC)C(=O)N[C@@H](CCC(N)=O)C(=O)N[C@@H](CCC(N)=O)C(=O)N[C@@H](C)C(=O)N[C@H](C(=O)N[C@H](C(=O)N[C@@H](CC(N)=O)C(=O)N[C@@H](C)C(=O)N[C@@H](CCCNC(=N)N)C(=O)N[C@H](C(=O)N[C@@H](CC(C)C)C(=O)N[C@@H](C)C(=O)N[C@@H](CCCNC(=N)N)C(=O)N[C@H](C(N)=O)C(C)C)[C@@H](C)CC)[C@@H](C)O)[C@@H](C)O)C(=O)O [Compound 32] (H-IVLSLDVPIGLLQILLEQEKQEKEK([AEEA-γGlu-Palmitoyl])QQATTNARILARV-NH2) | 9.18
3 | CCCCCCCCCCCCCCCC(=O)N[C@@H](CCC(=O)NCCCC[C@H](NC(=O)[C@H](CCCCN)NC(=O)[C@H](CCC(=O)O)NC(=O)[C@H](CCCCN)NC(=O)[C@H](CCC(=O)O)NC(=O)[C@H](CCC(N)=O)NC(=O)[C@H](CCCCN)NC(=O)[C@H](CCC(=O)O)NC(=O)[C@H](CCC(N)=O)NC(=O)[C@H](CCC(=O)O)NC(=O)[C@H](CC(C)C)NC(=O)[C@H](CC(C)C)NC(=O)[C@@H](NC(=O)[C@H](CCC(N)=O)NC(=O)[C@H](CC(C)C)NC(=O)[C@H](CC(C)C)NC(=O)CNC(=O)[C@@H](NC(=O)[C@@H]1CCCN1C(=O)[C@@H](NC(=O)[C@H](CC(=O)O)NC(=O)[C@H](CC(C)C)NC(=O)[C@H](CO)NC(=O)[C@H](CC(C)C)NC(=O)[C@@H](NC(=O)[C@@H](N)[C@@H](C)CC)C(C)C)C(C)C)[C@@H](C)CC)[C@@H](C)CC)C(=O)N[C@@H](CCC(N)=O)C(=O)N[C@@H](C)C(=O)N[C@H](C(=O)N[C@H](C(=O)N[C@@H](CC(N)=O)C(=O)N[C@@H](C)C(=O)N[C@@H](CCCNC(=N)N)C(=O)N[C@H](C(=O)N[C@@H](CC(C)C)C(=O)N[C@@H](C)C(=O)N[C@@H](CCCNC(=N)N)C(=O)N[C@H](C(N)=O)C(C)C)[C@@H](C)CC)[C@@H](C)O)[C@@H](C)O)C(=O)O [Compound 33] (H-IVLSLDVPIGLLQILLEQEKQEKEKK([γGlu-Palmitoyl])QATTNARILARV-NH2) | 8.68
4 | CCCCCCCCCCCCCCCC(=O)N[C@@H](CCC(=O)N[C@@H](CCC(=O)NCCCC[C@H](NC(=O)[C@H](CCCCN)NC(=O)[C@H](CCC(=O)O)NC(=O)[C@H](CCCCN)NC(=O)[C@H](CCC(=O)O)NC(=O)[C@H](CCC(N)=O)NC(=O)[C@H](CCCCN)NC(=O)[C@H](CCC(=O)O)NC(=O)[C@H](CCC(N)=O)NC(=O)[C@H](CCC(=O)O)NC(=O)[C@H](CC(C)C)NC(=O)[C@H](CC(C)C)NC(=O)[C@@H](NC(=O)[C@H](CCC(N)=O)NC(=O)[C@H](CC(C)C)NC(=O)[C@H](CC(C)C)NC(=O)CNC(=O)[C@@H](NC(=O)[C@@H]1CCCN1C(=O)[C@@H](NC(=O)[C@H](CC(=O)O)NC(=O)[C@H](CC(C)C)NC(=O)[C@H](CO)NC(=O)[C@H](CC(C)C)NC(=O)[C@@H](NC(=O)[C@@H](N)[C@@H](C)CC)C(C)C)C(C)C)[C@@H](C)CC)[C@@H](C)CC)C(=O)N[C@@H](CCC(N)=O)C(=O)N[C@@H](C)C(=O)N[C@H](C(=O)N[C@H](C(=O)N[C@@H](CC(N)=O)C(=O)N[C@@H](C)C(=O)N[C@@H](CCCNC(=N)N)C(=O)N[C@H](C(=O)N[C@@H](CC(C)C)C(=O)N[C@@H](C)C(=O)N[C@@H](CCCNC(=N)N)C(=O)N[C@H](C(N)=O)C(C)C)[C@@H](C)CC)[C@@H](C)O)[C@@H](C)O)C(=O)O)C(=O)O [Compound 34] (H-IVLSLDVPIGLLQILLEQEKQEKEKK([γGlu-γGlu-Palmitoyl])QATTNARILARV-NH2) | 4.54
5 | CCCCCCCCCCCCCCCC(=O)N[C@@H](CCC(=O)NCCCC[C@H](NC(=O)[C@H](CCC(N)=O)NC(=O)[C@H](CCCCN)NC(=O)[C@H](CCC(=O)O)NC(=O)[C@H](CCCCN)NC(=O)[C@H](CCC(=O)O)NC(=O)[C@H](CCC(N)=O)NC(=O)[C@H](CCCCN)NC(=O)[C@H](CCC(=O)O)NC(=O)[C@H](CCC(N)=O)NC(=O)[C@H](CCC(=O)O)NC(=O)[C@H](CC(C)C)NC(=O)[C@H](CC(C)C)NC(=O)[C@@H](NC(=O)[C@H](CCC(N)=O)NC(=O)[C@H](CC(C)C)NC(=O)[C@H](CC(C)C)NC(=O)CNC(=O)[C@@H](NC(=O)[C@@H]1CCCN1C(=O)[C@@H](NC(=O)[C@H](CC(=O)O)NC(=O)[C@H](CC(C)C)NC(=O)[C@H](CO)NC(=O)[C@H](CC(C)C)NC(=O)[C@@H](NC(=O)[C@@H](N)[C@@H](C)CC)C(C)C)C(C)C)[C@@H](C)CC)[C@@H](C)CC)C(=O)N[C@@H](C)C(=O)N[C@H](C(=O)N[C@H](C(=O)N[C@@H](CC(N)=O)C(=O)N[C@@H](C)C(=O)N[C@@H](CCCNC(=N)N)C(=O)N[C@H](C(=O)N[C@@H](CC(C)C)C(=O)N[C@@H](C)C(=O)N[C@@H](CCCNC(=N)N)C(=O)N[C@H](C(N)=O)C(C)C)[C@@H](C)CC)[C@@H](C)O)[C@@H](C)O)C(=O)O [Compound 35] (H-IVLSLDVPIGLLQILLEQEKQEKEKQK([γGlu-Palmitoyl])ATTNARILARV-NH2) | 404
